Experimental data taken from patent US7101878B1 (Agouron Pharmaceuticals, Inc., priority 1998, dated 2006).
Read-outs that look alike come from different tables or passages of the source.

Molecular target: T1, human GnRH receptor (Homo sapiens, UniProt P30968)
T1 construct: expressed in transfected cells; host or cells: HEK 293 (hGnRH-R/293, from Dr. Stuart Sealfon)
T1 sequence (P30968 1-328): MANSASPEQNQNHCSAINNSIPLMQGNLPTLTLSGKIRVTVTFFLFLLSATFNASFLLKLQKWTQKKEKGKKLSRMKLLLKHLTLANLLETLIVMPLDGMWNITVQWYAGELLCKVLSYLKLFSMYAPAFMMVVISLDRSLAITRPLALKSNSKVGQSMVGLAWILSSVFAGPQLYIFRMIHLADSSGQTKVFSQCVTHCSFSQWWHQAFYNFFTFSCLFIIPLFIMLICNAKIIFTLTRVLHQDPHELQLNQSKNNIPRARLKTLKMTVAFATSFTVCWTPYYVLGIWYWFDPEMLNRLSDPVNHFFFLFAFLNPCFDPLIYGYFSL
Assay: Radioligand binding, 125I-GnRH-A displacement, membranes of HEK 293 cells with human GnRH receptor
Conditions: for remaining activity at 10 µM: read-out: S%R 10 uM hGnRHR; for IC50: read-out: hGnRH IC50; for remaining activity at 1 µM: 1 uM compound, read-out: S%R 1 uM hGnRHR
How it was run: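 After filtration and PBS washes, bound radioactivity was counted by scintillation and IC50 derived. Identical conditions applied for non-human receptors.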

[1] = 1 uM, read-out: % Inhib. @ 1 uM hGnRH
[2] = 1 h, repeat of % Inhib. at 1 uM, read-out: Repeats @ 1 uM hGnRH
[3] = 1 h, substrate remaining, 10 uM compound, closer to zero = closer to 100% inhibition
[4] = 1 h, substrate remaining, closer to zero = closer to 100% inhibition

Row | inhibition at 1 µM [1] | inhibition at 1 µM [2] | IC50 | Structure (SMILES) | also measured
1 | – | – | 7.64 µM | CNc1ccccc1NC(=O)c1ccc(Cc2cc3c(cc2C)C(C)(C)CCC3(C)C)o1 [Compound 167] | –
2 | – | – | 3.7 µM | Cc1cc2c(cc1Cc1ccc(C(=O)NCc3ccc(C(C)(C)C)cc3)o1)C(C)(C)CCC2(C)C [Compound 49] | –
3 | 81% | 85% | – | Cc1cc2c(cc1Cc1ccc(C(=O)NCc3cccc(C)c3C)o1)C(C)(C)CCC2(C)C [drawing 1192] | –
4 | – | – | 0.3 µM | CSc1ccccc1NC(=O)c1ccc(Cc2cc3c(cc2C)C(C)(C)CCC3(C)C)o1 [Compound 161] | –
5 | – | – | 0.32 µM | Cc1cc2c(cc1Cc1ccc(C(=O)Nc3ccccc3)o1)C(C)(C)CCC2(C)C [Compound 195] | insolubility remark in hGnRH IC50 cell (binding assay conditions): Insol. >3 uM
6 | 16% | 7% | – | Cc1cc2c(cc1Cc1ccc(C(=O)NC(CO)CSCc3ccccc3)o1)C(C)(C)CCC2(C)C (stereo not drawn) | –
7 | 62% | 67% | – | Cc1cc2c(cc1Cc1ccc(C(=O)NCc3ccccn3)o1)C(C)(C)CCC2(C)C [drawing 984] | –

Continued, molecule first:

Row | Structure (SMILES) | inhibition at 1 µM [1] | inhibition at 1 µM [2] | IC50 | also measured
8 | Cc1cc2c(cc1Cc1ccc(C(=O)N3CCN(c4cccc(Cl)c4)CC3)o1)C(C)(C)CCC2(C)C | -22% | 9% | – | –
9 | Cc1cccc(NC(=O)c2ccc(Cc3cc4c(cc3C)C(C)(C)CCC4(C)C)o2)c1 [Compound 364] | – | – | – | remaining activity at 10 µM [3]: 21%
10 | Cc1cc2c(cc1Cc1ccc(C(=O)NC(c3ccccc3)c3ccc(Cl)cc3)o1)C(C)(C)CCC2(C)C (stereo not drawn) | -8% | 3% | – | –
11 | Cc1cc2c(cc1Cc1ccc(C(=O)NCc3ccc(C(F)(F)F)cc3)o1)C(C)(C)CCC2(C)C | 40% | 41% | – | –
12 | Cc1cc2c(cc1Cc1ccc(C(=O)Nc3ccc4[nH]ccc4c3)o1)C(C)(C)CCC2(C)C [Compound 354] | – | – | – | S%R 10 uM hGnRHR (substrate remaining, 10 uM compound, closer to zero = closer to 100% inhibition): −5%
13 | COc1ccc(NC(=O)c2ccc(Cc3cc4c(cc3C)C(C)(C)CCC4(C)C)o2)c(OC)c1 [Compound 332] | – | – | – | remaining activity at 10 µM [3]: 1%
14 | CCCOCCNC(=O)c1ccc(Cc2cc3c(cc2C)C(C)(C)CCC3(C)C)o1 [Compound 132] | – | – | 0.64 µM | –
15 | Cc1cc2c(cc1Cc1ccc(C(=O)NCc3ccc(N(C)C)cc3)o1)C(C)(C)CCC2(C)C [Compound 447] | – | – | – | remaining activity at 1 µM [4]: 18%
16 | Cc1cc2c(cc1Cc1ccc(C(=O)Nc3c(C)cccc3C)o1)C(C)(C)CCC2(C)C [Compound 397] | – | – | – | remaining activity at 10 µM [3]: 43%
17 | COc1cc(OC)c(NC(=O)c2ccc(Cc3c(OC)ccc(OC)c3OC)o2)c(OC)c1 [Compound 209] | – | – | 4.38 µM | –
18 | Cc1cc2c(cc1Cc1ccc(C(=O)NCc3ccccc3F)o1)C(C)(C)CCC2(C)C [Compound 408] | – | – | – | remaining activity at 1 µM [4]: 16%
19 | COc1cc(OC)c(NC(=O)c2ccc(C(O)c3cc4c(cc3C)C(C)(C)CCC4(C)C)o2)c(OC)c1 (stereo not drawn) [AXC- 07047] | – | – | 1.41 µM | –
20 | Cc1cc2c(cc1Cc1ccc(C(=O)Nc3c(Cl)cc(Cl)cc3C(F)(F)F)o1)C(C)(C)CCC2(C)C [Compound 395] | – | – | – | remaining activity at 10 µM [3]: 40%
21 | Cc1cc2c(cc1Cc1ccc(C(=O)NCc3cccc(-c4ccccc4)c3)o1)C(C)(C)CCC2(C)C [drawing 1190] | -10% | -6% | – | –
22 | Cc1cc2c(cc1Cc1ccc(C(=O)NC(c3ccccc3)c3ccccc3)o1)C(C)(C)CCC2(C)C [drawing 1071] | – | – | – | % Inhib. @ 1 uM hGnRH (1 uM): −6%; Repeats @ 1 uM hGnRH (repeat of % Inhib. at 1 uM): 2
23 | Cc1cc2c(cc1Cc1ccc(C(=O)NCc3ccc4c(c3)OCO4)o1)C(C)(C)CCC2(C)C [drawing 992] | 75% | 92% | – | –
24 | COc1cc(OC)c(OC)cc1Cc1ccc(C(=O)Nc2c(OC)cccc2OC)o1 [Compound 235] | – | – | 3.72 µM | –
25 | Cc1cc2c(cc1Cc1ccc(C(=O)NCCc3ccccc3)o1)C(C)(C)CCC2(C)C [Compound 405] | – | – | – | remaining activity at 1 µM [4]: 40%
26 | Cc1cc2c(cc1Cc1ccc(C(=O)NCc3ccc(CN(C)C)cc3)o1)C(C)(C)CCC2(C)C [Compound 166] | – | – | 0.26 µM | –
